From patent US3935203A, “Derivatives of 3-oxo-2,3-dihydro-1,4-benzoxazine” (CERPHA, priority 1972, dated 1976) come the findings set out here.

Where only a bound is given, the exact number is not on record here.

A short description of one data set: in vivo. The settings on record: mouse, po.
The test system of data set [1] is pain induced by the intraperitoneal injection of acetic acid. Briefly: Analgesic activity, Koster's test on mice (acetic acid writhing). The format is in vivo, male mice. The note with it: for ED50 / inhibition in vivo at 400 mg/kg / inhibition in vivo at 200 mg/kg: Mus musculus, po; for inhibition in vivo at 400 mg/kg: 400 mg/kg per os; for inhibition in vivo at 200 mg/kg: 200 mg/kg per os. The procedure: (§1) The pain is induced by the intraperitoneal injection of 0.10 ml/10 g of a 3% acetic acid solution.
(§2) The painful crises thus obtained (writhing of the trunk, stretching of the hind legs) are counted for 20 minutes following the injection.
(§3) The product to be tested was administered 30 minutes before the pain had been induced in batches of 10 male mice distributed at random. The percentage of analgesic activity is represented by the percentage decrease in the number of reactions established in relation to the controls.
(In general: An intraperitoneal irritant provokes the stretching counted in writhing tests.)

The test system of data set [2] is pain induced by heat contact stimulation. Put plainly: Analgesic activity, Eddy's test in mice (hot plate). The format is in vivo. The note with it: for ED50 / inhibition in vivo at 400 mg/kg / inhibition in vivo at 200 mg/kg: Mus musculus, po, 0.5 h; for ED50 / ED50 Eddy's test: per os, 30 minutes after administration, heat stimulus; for ED50 Eddy's test: 30 min; for inhibition in vivo at 400 mg/kg: 400 mg/kg per os; for inhibition in vivo at 200 mg/kg: 200 mg/kg per os. On the procedure:
(§4) Pain is induced by heat contact stimulation (mice placed on a heating plate kept at 56.5°C) and the time taken to react to the stimulus (licking of the front paws) is measured.
(§5) Batches of 10 animals selected at random are examined 30 minutes after the oral administration of the product to be tested in a gummy suspension.
(§6) The percentage of analgesic activity is established by taking as 100% activity the average response time of the control animals increased by 10 seconds.

Data set [3] has as its system pain (heat stimulus and chemical stimulus). Put plainly: Antalgic power compared with amidopyrine (Eddy's and Koster's tests). The format is in vivo, mice. The settings on record: per os, reference amidopyrine. On the procedure: as §4, §5, §6, §1, §2, §3
For the next data set, the system named is kaolin oedema. Briefly: Anti-oedematous activity, kaolin oedema in rats (Wilhelmi and Domenjoz). The settings on record: per os; for ED50: Rattus norvegicus, po, paw volume 5 hours after kaolin, read-out: Kaolin oedema test ED50 per os. It counts as in vivo, male rats. The procedure:
3. […] ACTIVITY Kaolin oedema in rats in accordance with […] The product to be tested was orally administered to batches of 8 male rats distributed at random 30 minutes before the intraplantar injection of 0.15 ml. of a 10% kaolin suspension. The volume of the paw is measured by plethysmography 5 hours after injection of the irritant. For each rat, the percentage oedema is evaluated in relation to the initial volume. The percentage activity corresponds to the percentage decrease in oedema (average oedema of the treated animals in comparison with the average oedema of the control animals).

The conditions of data set [4]: Table III.
Setting [5] is: per os, 30 minutes before acetic acid, chemical stimulus.

A word on the LD50: it is the dose at which mortality reaches 50%. Low values mean greater toxicity, high ones lower toxicity. As usually defined, the ED50 is the dose that gives a 50% effect, or the effect in half of the subjects. `Cc1c(N(C)C)c(=O)n(-c2ccccc2)n1C` [Amidopyrine, amidopyrine, reference compound] gave a 50% lethal dose (LD50) in “in vivo” of 1850 mg/kg. In addition, the results for the median effective dose (ED50) in data set [1] (setting [5]) and in data set [2] were 120 mg/kg and 300 mg/kg, respectively.
For the compound `CC1Oc2ccc(Cl)cc2N(CC(O)CO)C1=O` (stereo not drawn) [Example 1, 2-methyl-3-oxo-4-(2,3-dihydroxypropyl)-6-chloro-2,3-dihydro-1,4-benzoxazine], the LD50 in “in vivo” is 850 mg/kg. Also, the “antalgic power relative to amidopyrine” value in data set [3] is on record as “as much as five times the activity of this reference product”. Further, in data set [1] (setting [5]), it took a dose of 60 mg/kg to reach the 50% effect level (ED50) and the “ED50 Koster's test” value amounted to 57 mg/kg. Also, in data set [2], the 50% effect level (ED50) was put at a dose of 60 mg/kg and the “ED50 Eddy's test” value is 63 mg/kg.
For the compound `CCC1Oc2ccc(Cl)cc2N(CC(O)CO)C1=O` (stereo not drawn) [Example 2, 2-ethyl-3-oxo-4-(2,3-dihydroxypropyl)-6-chloro-2,3-dihydro-1,4-benzoxazine], in “in vivo”, the 50% lethal dose (LD50) was found to be 1660 mg/kg. For the same compound, in data set [3], the “antalgic power relative to amidopyrine” value was “as much as five times the activity of this reference product”. In data set [1] (setting [5]), the ED50 was 60 mg/kg. Also, in data set [2], the ED50 turned out to be 60 mg/kg and the “ED50 Eddy's test” value amounted to 61 mg/kg.
On to `O=C1COc2ccc(Cl)cc2N1CC(O)CO` (stereo not drawn) [Example 3, 3-oxo-4-(2,3-dihydroxypropyl)-6-chloro-2,3-dihydro-1,4-benzoxazine], for which the median lethal dose (LD50) in “in vivo” came out at 1700 mg/kg. Besides, the ED50 is 100 mg/kg in data set [1] (setting [5]), 200 mg/kg in the data set on kaolin oedema and 200 mg/kg in data set [2]. For the same compound, in the data set on kaolin oedema (reference phenylbutazone), the “anti-oedematous activity compared with phenylbutazone” value is listed as “comparable with that of phenylbutazone”.
The term inhibition in vivo denotes the change of the read-out against control, counted positive when it falls. Read a high inhibition in vivo as a strong effect. Consider `CC1Oc2cc(Br)c(Cl)cc2N(CC(O)CO)C1=O` (stereo not drawn) [Example 4, 2-methyl-3-oxo-4-(2,3-dihydroxypropyl)-6-chloro-7-bromo-2,3-dihydro-1,4-benzoxazine], for which, in the data set “in vivo”, the LD50 is above 1500 mg/kg. The inhibition in vivo at 400 mg/kg in data set [1] turned out to be 68%; in data set [2], 42%.
In the same order, the values of `Cc1ccc2c(c1)N(CC(O)CO)C(=O)C(C)O2` (stereo not drawn) [Example 5, 2-methyl-3-oxo-4-(2,3-dihydroxypropyl)-6-methyl-2,3-dihydro-1,4-benzoxaine] are above 1500 mg/kg, 66% and 60%.
For the compound `CCCc1cc(OC)c2c(c1)N(CC(O)CO)C(=O)C(C)O2` (stereo not drawn) [Example 6, 2-methyl-3-oxo-4-(2,3-dihydroxypropyl)-6-n-propyl-8-methoxy-2,3-dihydro-1,4-benzoxazine], the LD50 in “in vivo” was above 1500 mg/kg. The inhibition in vivo at 400 mg/kg in data set [1] was found to be 46%; in data set [2] it was 52%.
Turning to `CC1Oc2ccc([N+](=O)[O-])cc2N(CC(O)CO)C1=O` (stereo not drawn) [Example 7, 2-methyl-3-oxo-4-(2,3-dihydroxypropyl)-6-nitro-2,3-dihydro-1,4-benzoxazine], the “DL50 per os in mice” value in data set [4] is above 1000 mg/kg. Besides, the median lethal dose (LD50) in the data set “in vivo” was above 1000 mg/kg. Further, the results for the 50% effective dose (ED50) (in data set [1] (setting [5]); in the data set on kaolin oedema; in data set [2]) were 300 mg/kg, 400 mg/kg and 300 mg/kg, respectively.
In the case of `CCC1Oc2ccccc2N(CC(O)CO)C1=O` (stereo not drawn) [Example 8, 2-ethyl-3-oxo-4-(2,3-dihydroxypropyl)-2,3-dihydro-1,4-benzoxazine], the LD50 in “in vivo” was 1200 mg/kg. Also, the figures for the inhibition in vivo at 200 mg/kg in data set [1] and in data set [2] were 21% and 5%, respectively.
`CCCC1Oc2ccc(Cl)cc2N(CC(O)CO)C1=O` (stereo not drawn) [Example 9, 2-n-propyl-3-oxo-4-(2,3-dihydroxypropyl)-6-chloro-2,3-dihydro-1,4-benzoxazine] came in with an LD50 in “in vivo” above 1500 mg/kg. In addition, the values for the median effective dose (ED50) in data set [1] (setting [5]) and in data set [2] were 80 mg/kg and 100 mg/kg, respectively.
In the same order, the values of `CCC1Oc2ccc(Br)cc2N(CC(O)CO)C1=O` (stereo not drawn) [Example 10, 2-ethyl-3-oxo-4-(2,3-dihydroxypropyl)-6-bromo-2,3-dihydro-1,4-benzoxazine] are above 1500 mg/kg, 300 mg/kg and 200 mg/kg.
Regarding `COc1ccc2c(c1)N(CC(O)CO)C(=O)C(C)O2` (stereo not drawn) [Example 11, 2-methyl-3-oxo-4-(2,3-dihydroxypropyl)-6-methoxy-2,3-dihydro-1,4-benzoxazine], in data set [4], the “DL50 per os in mice” value is reported as above 1000 mg/kg. In “in vivo”, the LD50 is above 1000 mg/kg. The inhibition in vivo at 200 mg/kg in data set [1] worked out at 10%; in data set [2], 16%. In the data set with kaolin oedema, the ED50 amounted to 200 mg/kg.
On to `C=CCc1cc(OC)c2c(c1)N(CC(O)CO)C(=O)C(C)O2` (stereo not drawn) [Example 12, 2-methyl-3-oxo-4-(2,3-dihydroxypropyl)-6-allyl-8-methoxy-2,3-dihydro-1,4-benzoxazine], for which the median lethal dose (LD50) in “in vivo” is above 1500 mg/kg. The median effective dose (ED50) in data set [1] (setting [5]) and in data set [2] was 300 mg/kg in each case.
Regarding `CCCCC1Oc2ccc(Cl)cc2N(CC(O)CO)C1=O` (stereo not drawn) [Example 13, 2-n-butyl-3-oxo-4-(2,3-dihydroxypropyl)-6-chloro-2,3-dihydro-1,4-benzoxazine], in “in vivo”, the LD50 was found to be 1500 mg/kg. In addition, the 50% effective dose (ED50) in data set [1] (setting [5]) and in data set [2] was 100 mg/kg in each case.
With `CC(=O)OCC(CN1C(=O)C(C)Oc2ccc(Cl)cc21)OC(C)=O` (stereo not drawn) [Example 14, 2-methyl-3-oxo-4-(2,3-diacetoxypropyl)-6-chloro-2,3-dihydro-1,4-benzoxazine], in data set [4], the “DL50 per os in mice” value is above 1500 mg/kg. The compound also displayed a median lethal dose (LD50) in the data set “in vivo” above 1500 mg/kg. Moreover, the figures for the inhibition in vivo at 400 mg/kg in data set [1] and in data set [2] were 35% and 43%, respectively. The ED50 in the data set on kaolin oedema was 400 mg/kg.
Consider `CCC1Oc2ccc(Cl)cc2N(CC(COC(C)=O)OC(C)=O)C1=O` (stereo not drawn) [Example 15, 2-ethyl-3-oxo-4-(2,3-diacetoxypropyl)-6-chloro-2,3-dihydro-1,4-benzoxazine], for which the “DL50 per os in mice” value in data set [4] was above 1500 mg/kg. The compound also had an LD50 in the data set “in vivo” above 1500 mg/kg. In addition, the inhibition in vivo at 200 mg/kg in data set [1] came to 20%; in data set [2], 14%. Besides, in the data set with kaolin oedema, the ED50 came out at 400 mg/kg.
Consider `CC(=O)OCC(CN1C(=O)COc2ccc(Cl)cc21)OC(C)=O` (stereo not drawn) [Example 16, 3-oxo-4-(2,3-diacetoxypropyl)-6-chloro-2,3-dihydro-1,4-benzoxazine], for which the “DL50 per os in mice” value in data set [4] is on record as above 1500 mg/kg. In “in vivo”, the LD50 is above 1500 mg/kg. Also, the inhibition in vivo at 400 mg/kg in data set [1] is 51%; in data set [2], 28%. Moreover, the ED50 in the data set with kaolin oedema was 400 mg/kg.
On to `CCCCC1C(=O)N(c2ccccc2)N(c2ccccc2)C1=O` [Phenylbutazone, phenylbutazone, reference compound], for which, in the data set on kaolin oedema, the median effective dose (ED50) came out at 200 mg/kg.
